pIC50: −log10 of the molar value.
Assays:
[1] = system: Human peripheral blood mononuclear cells; assay: Human Concanavalin-A Proliferation Assay (Con HU Assay); assay type: cell-based; conditions: concanavalin-A stimulated human PBMC; for inhibition at 1 µM / inhibition at 100 µM / inhibition at 10 µM: 72 h, read-out: % Inhibition of proliferation (at concentrations of 1,10, or 100 μm); for inhibition at 1 µM / inhibition at 100 µM / inhibition at 10 µM / % Inhibition of proliferation (at concentrations of 1,10, or 100 μm): 3 days; for pIC50: tritiated thymidine
Method in brief: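 Proliferation read as tritiated thymidine uptake (0.5 μCi/well, 6 h pulse on day 3) in human PBMC cultured 3 days with 2.5 μg/ml (final) concanavalin-A. Cells, 50,000 per well in supplemented RPMI 1640 with 10% FBS, received compound 15 min before mitogen.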

[2] = Homo sapiens, PBMC, concentration 1 μm (in parentheses in the cell)
[3] = Homo sapiens, PBMC, concentration 100 μm (in parentheses in the cell)
[4] = Homo sapiens, PBMC, concentration 10 μm (in parentheses in the cell)
[5] = concentration 1 μm (in parentheses in the cell)

Structure (SMILES) | melting point | inhibition at 1 µM [1, 2] | pIC50 ([1]; Homo sapiens, PBMC) | further results
O=C1CCC(C(=O)Nc2ccc(-n3nc(C(F)(F)F)cc3C(F)(F)F)cc2)O1 (stereo not drawn) [Example 254, N-[4-[3,5-bis(trifluoromethyl)-1H-pyrazol-1-yl]phenyl]tetrahydro-5-oxo-2-furancarboxamide] | 172 to 173 °C | 9% |  | 
O=C(Nc1ccc(-n2nc(C(F)(F)F)cc2C(F)(F)F)cc1)C1(O)CC1 [Example 17, N-[4-[3,5-bis(trifluoromethyl)-1H-pyrazol-1-yl]phenyl]-1-hydroxycyclopropanecarboxamide] | 198 to 200 °C | 18% |  | 
Cc1cc(C)c(C(=O)Nc2ccc(-n3nc(C(F)(F)F)cc3C(F)(F)F)cc2)c(C)c1 [Example 78, N-[4-[3,5-bis(trifluoromethyl)-1H-pyrazol-1-yl]phenyl]-2,4,6-trimethylbenzamide] | 203 to 205 °C |  | 6.22 | inhibition at 100 µM [1, 3]: 95%
N#Cc1cccc(NC(=O)Nc2ccc(-n3nc(C(F)(F)F)cc3C(F)(F)F)cc2)c1 [Example 16, N-[4-[3,5-bis(trifluoromethyl)-1H-pyrazol-1-yl]phenyl]-N′-(3-cyanophenyl)urea] | 204 to 205 °C |  | 5.38 | inhibition at 100 µM [1, 3]: 100%
O=C(Nc1ccc(-n2nc(C(F)(F)F)cc2C(F)(F)F)cc1)c1ccc(O)c(O)c1 [Example 181, N-[4-[3,5-bis(trifluoromethyl)-1H-pyrazol-1-yl]phenyl]-3,4-dihydroxybenzamide] | 233 to 235 °C |  | 5.65 | inhibition at 10 µM [1, 4]: 100%
COC(C(=O)Nc1ccc(-n2nc(C(F)(F)F)cc2C(F)(F)F)cc1)(c1ccccc1)C(F)(F)F (stereo not drawn) [Example 55, N-[4-[3,5-bis(trifluoromethyl)-1H-pyrazol-1-yl]phenyl]-α-methoxy-α-(trifluoromethyl)benzeneacetamide] | 127 to 129 °C | 13% |  | 
O=C(Nc1ccc(-n2nc(C(F)(F)F)cc2C(F)(F)F)cc1)c1cc(F)c(F)cc1Cl [Example 223, N-[4-[3,5-bis(trifluoromethyl)-1H-pyrazol-1-yl]phenyl]-2-chloro-4,5-difluorobenzamide] | 149 to 152 °C |  | 7.03 | inhibition at 10 µM [1, 4]: 100%
Cc1ccc(C(=O)Nc2ccc(-n3nc(C(F)(F)F)cc3C(F)(F)F)cc2)cc1 [Example 100, N-[4-[3,5-bis (trifluoromethyl)-1H-pyrazol-1-yl]phenyl]-4-methylbenzamide] | 225 to 226 °C |  | 5.67 | inhibition at 100 µM [1, 3]: 75%
CS(=O)(=O)c1ccc(C(=O)Nc2ccc(-n3nc(C(F)(F)F)cc3C(F)(F)F)cc2)cc1 [Example 109, N-[4-[3,5-bis(trifluoromethyl)-1H-pyrazol-1-yl]phenyl]-4-(methylsulfonyl)benzamide] | 216 to 218 °C | 45% |  | 
N#Cc1cccc(NC(=O)c2ccc(-n3nc(C(F)(F)F)cc3C(F)(F)F)cc2)c1 [Example 186, 4-[3,5-Bis(trifluoromethyl)-1H-pyrazol-1-yl]-N-(3-cyanophenyl)benzamide] | 195 to 196 °C | 14% |  | 
O=C(Nc1ccc(-n2nc(C(F)(F)F)cc2Cl)cc1)c1ccncc1Cl [Example 346, 3-chloro-N-(4-(5-chloro-3-(trifluoromethyl)-1H-pyrazol-1-yl)phenyl)isonicotinamide] | 184 to 185 °C |  | 6.93 | 
COC(=O)c1cc(NC(=O)c2ccccc2F)ccc1-n1nc(C(F)(F)F)cc1C(F)(F)F [Example 293, methyl 2-(3,5-bis(trifluoromethyl)-1H-pyrazol-1-yl)-5-((2-fluorobenzoyl)amino)benzoate] |  |  | 6.39 | 
N#Cc1cccc(NCc2ccc(-n3nc(C(F)(F)F)cc3C(F)(F)F)cc2)c1 [Example 128, 3-[[[4-[3,5-bis(trifluoromethyl)-1H-pyrazol-1-yl]phenyl]methyl]amino]benzonitrile] |  | 25% |  | 
CN(C)c1ccccc1C(=O)Nc1ccc(-n2nc(C(F)(F)F)cc2C(F)(F)F)cc1 [Example 86, N-[4-[3,5-bis(trifluoromethyl)-1H-pyrazol-1-yl]phenyl]-2-(dimethylamino)benzamide] |  | 33% |  | 
O=C(Nc1ccc(-n2nc(-c3cccnc3)cc2C(F)F)cc1)c1ccncc1F [Example 329, N-(4-(5-(difluoromethyl)-3-(3-pyridinyl)-1H-pyrazol-1-yl)phenyl)-3-fluoroisonicotinamide] |  |  | 6.52 | 
CSc1cc(C(F)(F)F)nn1-c1ccc(NC(=O)c2ccccc2F)cc1 [Example 309, 2-fluoro-N-(4-(5-(methylsulfanyl)-3-(trifluoromethyl)-1H-pyrazol-1-yl)phenyl)benzamide] |  |  | 7.49 | 
Fc1ccc(NCc2ccc(-n3nc(C(F)(F)F)cc3C(F)(F)F)cc2)c(F)c1 [Example 108, 4-[3,5-bis(trifluoromethyl)-1H-pyrazol-1-yl]-N-(2,4-difluorophenyl)benzenemethanamine] |  | 18% |  | 
O=C(Nc1ccc(-n2nc(C(F)(F)F)cc2-c2cccs2)cc1)c1ccccc1F [Example 308, 2-fluoro-N-(4-(5-(2-thienyl)-3-(trifluoromethyl)-1H-pyrazol-1-yl)phenyl)benzamide] |  |  | 6.51 | 
N#Cc1cc(NC(=O)c2ccccc2F)ccc1-n1nc(C(F)(F)F)cc1C(F)(F)F [Example 299, N-(4-(3,5-bis(trifluoromethyl)-1H-pyrazol-1-yl)-3-cyanophenyl)-2-fluorobenzamide] |  |  | 6.57 | 
COc1cc(SC)ccc1C(=O)Nc1ccc(-n2nc(C(F)(F)F)cc2C(F)(F)F)cc1 [Example 179, N-[4-[3,5-bis(trifluoromethyl)-1H-pyrazol-1-yl]phenyl]-2-methoxy-4-(methythio)benzamide] |  |  |  | pIC50 [1]: 5.05; % Inhibition of proliferation (at concentrations of 1,10, or 100 μm) ([1]; concentration 10 μm (in parentheses in the cell)): 47(10) %
CC(=O)Nc1ccc(-n2nc(C(F)(F)F)cc2C(F)(F)F)cc1 [Example 156] |  |  |  | % Inhibition of proliferation (at concentrations of 1,10, or 100 μm) [1, 5]: 16(1) %
O=C(Nc1ccc(-n2nc(C(F)(F)F)cc2C(F)(F)F)cc1)c1cnccn1 [Example 172, N-[4-[3,5-Bis(trifluoromethyl)-1H-pyrazol-1-yl]phenyl]pyazinecarboxamide] |  |  |  | % Inhibition of proliferation (at concentrations of 1,10, or 100 μm) [1, 5]: 48(1) %
O=C(Nc1ccc(-n2nc(C(F)(F)F)cc2C(F)(F)F)cc1)C1CCCC1 [Example 123, N-[4-[3,5-bis(trifluoromethyl)-1H-pyrazol-1-yl]phenyl]cyclopentanecarboxmide] |  |  |  | pIC50 [1]: 6.59; % Inhibition of proliferation (at concentrations of 1,10, or 100 μm) ([1]; concentration 100 μm (in parentheses in the cell)): 99(100) %
Cc1nnsc1C(=O)Nc1ccc(-n2nc(-c3nccs3)cc2C(F)(F)F)cc1 [Example 342, 4-methyl-N-(4-(3-(1,3-thiazol-2-yl)-5-(trifluoromethyl)-1H-pyrazol-1-yl)phenyl)-1,2,3-thiadiazole-5-carboxamide] |  |  | 6.62 | 
Fc1ccc(/N=C/c2ccc(-n3nc(C(F)(F)F)cc3C(F)(F)F)cc2)c(F)c1 [Example 97, (E)-N-[4-[3,5-bis(trifluoromethyl)-1H-pyrazol-1-yl]phenylmethylene]-2,4-difluorobenzenamine] |  |  |  | inhibition at 10 µM [1, 4]: 20%
CNC(=O)c1ccccc1C(=O)Nc1ccc(-n2nc(C(F)(F)F)cc2C(F)(F)F)cc1 [Example 115, N-[4-[3,5-bis(trifluoromethyl)-1H-pyrazol-1-yl]phenyl]-N′-methyl-1,2-benzenedicarboxamide] |  |  | 4.29 | inhibition at 100 µM [1, 3]: 71%

Source: patent US20010044445A1, “AZOLE INHIBITORS OF CYTOKINE PRODUCTION” (priority 1999, published 2001)
